Laboratory results reported in patent US11254700B2, “GSK-3β inhibitors and use thereof in methods of treatment” (UNIVERSITY OF HAWAII, priority 2017, dated 2022).

Target: GSK-3β (Homo sapiens, UniProt P49841)
Experiment: Kinase luminescent assay (ADP-Glo), GSK-3β inhibition
Type: biochemical
Conditions: 25 μM ATP, 1 hour, room temperature; mean of quadruplicate of two experiments; read-out: IC50 against GSK-3β
Description: Kinase Luminescent Assay.
Kinase inhibition was assessed with the ADP-Glo Kinase Assay. […] The reaction mixture was incubated for 1 hour at room temperature followed by the addition of the ADP-Glo′ reagents according to the manufacturer's protocol. The kinase inhibitor staurosporine was used at 1 μM as a reference control. Each data point was collected in quadruplicate of two independent experiments.

Chain of GSK-3β (P49841 whole entry): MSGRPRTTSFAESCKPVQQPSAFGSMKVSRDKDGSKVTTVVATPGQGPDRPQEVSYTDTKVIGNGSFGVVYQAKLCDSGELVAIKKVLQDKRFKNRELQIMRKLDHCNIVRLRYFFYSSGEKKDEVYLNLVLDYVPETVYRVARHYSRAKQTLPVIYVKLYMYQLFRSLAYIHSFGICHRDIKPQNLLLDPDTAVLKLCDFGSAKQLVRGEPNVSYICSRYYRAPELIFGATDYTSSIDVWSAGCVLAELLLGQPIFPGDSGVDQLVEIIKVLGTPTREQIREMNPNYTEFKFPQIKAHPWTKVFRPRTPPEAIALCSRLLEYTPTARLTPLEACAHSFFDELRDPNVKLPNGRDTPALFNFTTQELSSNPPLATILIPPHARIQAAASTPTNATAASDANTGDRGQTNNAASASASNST

| SMILES | IC50 |
| --- | --- |
| O=c1cc(-c2ccc(O)c(O)c2)oc2c([C@@H]3O[C@H](CO)[C@@H](O)[C@H](O)[C@H]3O)c(O)cc(O)c12 [Compound 3, orientin, reference compound] | 5153 ± 31 µM |
| O=c1cc(-c2ccc(O)c(O)c2)oc2cc(O)cc(O)c12 [Compound 4, luteolin, reference compound] | 3.1 µM |
| COc1ccc(-c2cc(=O)c3c(OC)c([C@@H]4O[C@H](CO)[C@@H](O)[C@H](O)[C@H]4O)c(OC)cc3o2)cc1OC [Compound 5, 2-(3,4-Dimethoxyphenyl)-5,7-dimethoxy-6-((2S,3R,4R,5S,6R)-3,4,5-trihydroxy-6-(hydroxymethyl)tetrahydro-2H-pyran-2-yl)-4H-chromen-4-one] | 239.2 ± 1.2 µM |
| COc1ccc(-c2cc(=O)c3c(OC)c([C@@H]4O[C@H](C(=O)O)[C@@H](O)[C@H](O)[C@H]4O)c(OC)cc3o2)cc1OC [Compound 6, (2S,3S,4R,5R,6S)-6-(2-(3,4-Dimethoxyphenyl)-5,7-dimethoxy-4-oxo-4H-chromen-6-yl)-3,4,5-trihydroxytetrahydro-2H-pyran-2-carboxylic acid] | 237.3 ± 1.4 µM |
| COC(=O)[C@H]1O[C@@H](c2c(OC)cc3oc(-c4ccc(OC)c(OC)c4)cc(=O)c3c2OC)[C@H](O)[C@@H](O)[C@@H]1O [Compound 7, Methyl (2S,3S,4R,5R,6S)-6-(2-(3,4-dimethoxyphenyl)-5,7-dimethoxy-4-oxo-4H-chromen-6-yl)-3,4,5-trihydroxytetrahydro-2H-pyran-2-carboxylate] | 135 µM |
| CCCNC(=O)[C@H]1O[C@@H](c2c(OC)cc3oc(-c4ccc(OC)c(OC)c4)cc(=O)c3c2OC)[C@H](O)[C@@H](O)[C@@H]1O [Compound 8, (2S,3S,4R,5R,6S)-6-(2-(3,4-Dimethoxyphenyl)-5,7-dimethoxy-4-oxo-4H-chromen-6-yl)-3,4,5-trihydroxy-N-propyltetrahydro-2H-pyran-2-carboxamide] | 29.2 ± 1.1 µM |
| CCCCNC(=O)[C@H]1O[C@@H](c2c(OC)cc3oc(-c4ccc(OC)c(OC)c4)cc(=O)c3c2OC)[C@H](O)[C@@H](O)[C@@H]1O [Compound 10, (2S,3S,4R,5R,6S)-6-(2-(3,4-Dimethoxyphenyl)-5,7-dimethoxy-4-oxo-4H-chromen-6-yl)-3,4,5-trihydroxy-N-butyltetrahydro-2H-pyran-2-carboxamide] | 33.3 ± 1.1 µM |
| COc1ccc(-c2cc(=O)c3c(OC)c([C@@H]4O[C@H](C(=O)NCC(C)C)[C@@H](O)[C@H](O)[C@H]4O)c(OC)cc3o2)cc1OC [Compound 11, (2S,3S,4R,5R,6S)-6-(2-(3,4-Dimethoxyphenyl)-5,7-dimethoxy-4-oxo-4H-chromen-6-yl)-3,4,5-trihydroxy-N-isobutyltetrahydro-2H-pyran-2-carboxamide] | 31.1 ± 1.2 µM |
| CCCCCNC(=O)[C@H]1O[C@@H](c2c(OC)cc3oc(-c4ccc(OC)c(OC)c4)cc(=O)c3c2OC)[C@H](O)[C@@H](O)[C@@H]1O [Compound 12, (2S,3S,4R,5R,6S)-6-(2-(3,4-Dimethoxyphenyl)-5,7-dimethoxy-4-oxo-4H-chromen-6-yl)-3,4,5-trihydroxy-N-pentyltetrahydro-2H-pyran-2-carboxamide] | 28 ± 1.1 µM |
| CCCCCCNC(=O)[C@H]1O[C@@H](c2c(OC)cc3oc(-c4ccc(OC)c(OC)c4)cc(=O)c3c2OC)[C@H](O)[C@@H](O)[C@@H]1O [Compound 13, (2S,3S,4R,5R,6S)-6-(2-(3,4-Dimethoxyphenyl)-5,7-dimethoxy-4-oxo-4H-chromen-6-yl)-3,4,5-trihydroxy-N-hexyltetrahydro-2H-pyran-2-carboxamide] | 9.4 ± 0.9 µM |
| COc1ccc(-c2cc(=O)c3c(OC)c([C@@H]4O[C@H](C(=O)NC5CC5)[C@@H](O)[C@H](O)[C@H]4O)c(OC)cc3o2)cc1OC [Compound 14, (2S,3S,4R,5R,6S)—N-Cyclopropyl-6-(2-(3,4-dimethoxyphenyl)-5,7-dimethoxy-4-oxo-4H-chromen-6-yl)-3,4,5-trihydroxytetrahydro-2H-pyran-2-carboxamide] | 25.8 ± 1.1 µM |
| COc1ccc(-c2cc(=O)c3c(OC)c([C@@H]4O[C@H](C(=O)NC5CCC5)[C@@H](O)[C@H](O)[C@H]4O)c(OC)cc3o2)cc1OC [Compound 15, (2S,3S,4R,5R,6S)—N-Cyclobutyl-6-(2-(3,4-dimethoxyphenyl)-5,7-dimethoxy-4-oxo-4H-chromen-6-yl)-3,4,5-trihydroxytetrahydro-2H-pyran-2-carboxamide] | 61.9 ± 1.9 µM |
| COc1ccc(-c2cc(=O)c3c(OC)c([C@@H]4O[C@H](C(=O)NC5CCCC5)[C@@H](O)[C@H](O)[C@H]4O)c(OC)cc3o2)cc1OC [Compound 16, (2S,3S,4R,5R,6S)—N-Cyclopentyl-6-(2-(3,4-dimethoxyphenyl)-5,7-dimethoxy-4-oxo-4H-chromen-6-yl)-3,4,5-trihydroxytetrahydro-2H-pyran-2-carboxamide] | 13.1 ± 1.1 µM |
| COc1ccc(-c2cc(=O)c3c(OC)c([C@@H]4O[C@H](C(=O)NCC5CCCCC5)[C@@H](O)[C@H](O)[C@H]4O)c(OC)cc3o2)cc1OC [Compound 18, (2S,3S,4R,5R,6S)—N-(Cyclohexylmethyl)-6-(2-(3,4-dimethoxyphenyl)-5,7-dimethoxy-4-oxo-4H-chromen-6-yl)-3,4,5-trihydroxytetrahydro-2H-pyran-2-carboxamide] | 26 ± 1.2 µM |
| COc1ccc(-c2cc(=O)c3c(OC)c([C@@H]4O[C@H](C(=O)NC56CC7CC(CC(C7)C5)C6)[C@@H](O)[C@H](O)[C@H]4O)c(OC)cc3o2)cc1OC [Compound 19, (2S,3S,4R,5R,6S)—N-(Adamantan-1-yl)-6-(2-(3,4-dimethoxyphenyl)-5,7-dimethoxy-4-oxo-4H-chromen-6-yl)-3,4,5-trihydroxytetrahydro-2H-pyran-2-carboxamide] | 33.5 ± 0.8 µM |
| COc1ccc(-c2cc(=O)c3c(OC)c([C@@H]4O[C@H](C(=O)Nc5ccccc5)[C@@H](O)[C@H](O)[C@H]4O)c(OC)cc3o2)cc1OC [Compound 20, (2S,3S,4R,5R,6S)-6-(2-(3,4-Dimethoxyphenyl)-5,7-dimethoxy-4-oxo-4H-chromen-6-yl)-3,4,5-trihydroxy-N-phenyltetrahydro-2H-pyran-2-carboxamide] | 19.7 ± 1.1 µM |
| COc1ccc(-c2cc(=O)c3c(OC)c([C@@H]4O[C@H](C(=O)Nc5nccs5)[C@@H](O)[C@H](O)[C@H]4O)c(OC)cc3o2)cc1OC [Compound 23, (2S,3S,4R,5R,6S)-6-(2-(3,4-Dimethoxyphenyl)-5,7-dimethoxy-4-oxo-4H-chromen-6-yl)-3,4,5-trihydroxy-N-(thiazol-2-yl)tetrahydro-2H-pyran-2-carboxamide] | 35.1 ± 1 µM |
| COc1ccc(-c2cc(=O)c3c(OC)c([C@@H]4O[C@H](C(=O)NCCF)[C@@H](O)[C@H](O)[C@H]4O)c(OC)cc3o2)cc1OC [Compound 26, (2S,3S,4R,5R,6S)-6-(2-(3,4-Dimethoxyphenyl)-5,7-dimethoxy-4-oxo-4H-chromen-6-yl)-3,4,5-trihydroxy-N-(2-fluoroethyl)tetrahydro-2H-pyran-2-carboxamide] | 34.8 ± 1 µM |
| COc1ccc(-c2cc(=O)c3c(OC)c([C@@H]4O[C@H](C(=O)N[C@H](C)C(F)(F)F)[C@@H](O)[C@H](O)[C@H]4O)c(OC)cc3o2)cc1OC [Compound 31, (2S,3S,4R,5R,6S)-6-(2-(3,4-Dimethoxyphenyl)-5,7-dimethoxy-4-oxo-4H-chromen-6-yl)-3,4,5-trihydroxy-N—((R)-1,1,1-trifluoropropan-2-yl) tetrahydro-2H-pyran-2-carboxamide] | < 20 µM |

Same assay, conditions: vs isoorientin 1

| SMILES | increase of potency against GSK-3β relative to 1 |
| --- | --- |
| COC(=O)[C@H]1O[C@@H](c2c(OC)cc3oc(-c4ccc(OC)c(OC)c4)cc(=O)c3c2OC)[C@H](O)[C@@H](O)[C@@H]1O [Compound 7, Methyl (2S,3S,4R,5R,6S)-6-(2-(3,4-dimethoxyphenyl)-5,7-dimethoxy-4-oxo-4H-chromen-6-yl)-3,4,5-trihydroxytetrahydro-2H-pyran-2-carboxylate] | 1.37 fold |

System: not listed separately
Experiment: in vitro
Conditions: PAMPA, 5 h, 20 μM, pH 7.4
Description: Samples were run in quadruplicate.
Oral administration is noninvasive and is preferred for chronical diseases such as Alzheimer's disease and other CNS disorders. […] In the PAMPA model, the amount of target compounds diffused from a donor compartment to an acceptor compartment through a tri-layer phospholipid pre-coated membrane are measured to assess oral-absorption potential of drug candidates. In the present study, 1, 4, 9, 17, 21 and 30 were evaluated with the PAMPA assay.

| SMILES | Pe | R (percent recovery) |
| --- | --- | --- |
| O=c1cc(-c2ccc(O)c(O)c2)oc2cc(O)cc(O)c12 [Compound 4, luteolin, reference compound] | 1.42 ± 0.07 ×10^−6 cm/s | 43% |
| CNCCCN1c2ccccc2CCc2ccccc21 [Desipramine, reference compound] | 13.43 ± 0.91 ×10^−6 cm/s | 96% |

Same assay, conditions: PAMPA, pH 7.4

| SMILES | Papp at 5 h, 20 µM |
| --- | --- |
| O=c1cc(-c2ccc(O)c(O)c2)oc2cc(O)cc(O)c12 [Compound 4, luteolin, reference compound] | 1 to 1.5 ×10⁻⁶ cm/s |
